Consider one cell line from the supplement of paper PMC10307832.

Common to all, as to assay: relative viability (nuclei count vs DMSO), 5 days (fraction); higher = more cells survive
Compound in the experiment “Erlotinib + Alpelisib”: C#Cc1cccc(Nc2ncnc3cc(OCCOC)c(OCCOC)cc23)c1 [Erlotinib] + Cc1nc(NC(=O)N2CCC[C@H]2C(N)=O)sc1-c1ccnc(C(C)(C)C(F)(F)F)c1 [Alpelisib] (partner 2 µM)
The gist of the method:
(§1)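 Medians of duplicate plates are given as relative viability. That measure is the nuclei count in treated wells divided by the count in vehicle wells. Counts were taken on 4× images of lung cancer cell lines in 1536-well plates, 5 days after pin-tool dosing the day after seeding with one drug alone or a fixed anchor-drug dose plus five library-drug doses (not always all listed) in √10 steps.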

Compound in the experiment “Erlotinib + Foretinib”: C#Cc1cccc(Nc2ncnc3cc(OCCOC)c(OCCOC)cc23)c1 [Erlotinib] + COc1cc2c(Oc3ccc(NC(=O)C4(C(=O)Nc5ccc(F)cc5)CC4)cc3F)ccnc2cc1OCCCN1CCOCC1 [Foretinib] (partner 0.25 µM)
The gist of the method:
as §1

Compound in the experiment “AT9283 + AZD7762”: O=C(Nc1c[nH]nc1-c1nc2ccc(CN3CCOCC3)cc2[nH]1)NC1CC1 [AT9283] + NC(=O)Nc1cc(-c2cccc(F)c2)sc1C(=O)N[C@H]1CCCNC1 [AZD7762] (partner 0.2 µM)
In a few lines: as §1

Compound in the experiment “AT9283 + Luminespib”: O=C(Nc1c[nH]nc1-c1nc2ccc(CN3CCOCC3)cc2[nH]1)NC1CC1 [AT9283] + CCNC(=O)c1noc(-c2cc(C(C)C)c(O)cc2O)c1-c1ccc(CN2CCOCC2)cc1 [Luminespib] (partner 0.01 µM)
The gist of the method: as §1

Compound in the experiment “Erlotinib + Palbociclib”: C#Cc1cccc(Nc2ncnc3cc(OCCOC)c(OCCOC)cc23)c1 [Erlotinib] + CC(=O)c1c(C)c2cnc(Nc3ccc(N4CCNCC4)cn3)nc2n(C2CCCC2)c1=O [Palbociclib] (partner 0.5 µM)
The gist of the method:
as §1

NCI-H441: the relative viability in the experiment with Erlotinib + Alpelisib (first compound 0.02 µM) was determined as 0.688; with Erlotinib + Alpelisib (first compound 0.2 µM), 0.655; with Erlotinib + Alpelisib (first compound 0.6325 µM) it was 0.743; in the experiment with Erlotinib + Alpelisib (first compound 2 µM), 0.466; in the experiment with Erlotinib + Foretinib (first compound 0.02 µM), 1.01; with Erlotinib + Foretinib (first compound 0.2 µM), 1.02. Also, the relative viability was 0.933 in the experiment with Erlotinib + Foretinib (first compound 0.6325 µM); 0.883 with Erlotinib + Foretinib (first compound 2 µM); 1.06 in the experiment with AT9283 + AZD7762 (first compound 0.003 µM); 1.1 in the experiment with AT9283 + AZD7762 (first compound 0.03 µM); 0.894 with AT9283 + AZD7762 (first compound 0.09487 µM); 0.633 with AT9283 + AZD7762 (first compound 0.3 µM). Besides, the relative viability with AT9283 + Luminespib (first compound 0.003 µM) was found to be 0.432; with AT9283 + Luminespib (first compound 0.03 µM), 0.347; with AT9283 + Luminespib (first compound 0.09487 µM) it was 0.344; with AT9283 + Luminespib (first compound 0.3 µM), 0.263; in the experiment with Erlotinib + Palbociclib (first compound 0.02 µM), 0.196; in the experiment with Erlotinib + Palbociclib (first compound 0.2 µM), 0.212. Besides, the relative viability in the experiment with Erlotinib + Palbociclib (first compound 0.6325 µM) came out at 0.177; with Erlotinib + Palbociclib (first compound 2 µM), 0.186.
